Assay results published in patent publication US4511577A, “Derivatives of benzoic acid” (Media Research s.r.l., priority 1983, dated 1985).

Key:
[1] = plasmatic kinetics in rat after oral administration
Procedure: The plasmatic kynetic of acetylsalicylic acid in rat was compared after oral administration of equimolecular doses of MR-Y134 and […] (466 mg/kg MR-Y134 and 300 mg/kg ASA respectively).
The compounds were both administered in the form of 2% gum arabic suspension to rats fastened for 12 hours. Each animal was administered with 1.0 ml of solution.
The rats were killed at the following times: 1, 2, 4, 8, 12 hours after the administration of the compounds.
The blood sample was drawn in heparin.

[2] = test system: carrageenin induced oedema in rat paw; assay: carrageenin induced oedema in rat paw (antiinflammatory activity); assay type: in vivo; details: 75 mg/kg per os; for AREA Δ % (paw volume): control 243.3; for paw average volume, 30' / paw average volume, 1h / paw average volume, 2h / paw average volume, 3h / paw average volume, 6h / paw average volume, Basal: 5 animals
Procedure: The antiinflammatory activity of MR-[…] in comparison with acetylsalicylic acid was determined by the test of carrageenin induced oedema in rat paw, according to the method of Winter, […], Ness. (Proc. Soc. Exp. Biol. Med., 111, 544-547, 1962). […] The paw volume was determined using an apparatus supplied by U. Basile Ltd.

[3] = tail-flick test (analgesic activity); assay type: in vivo; details: 75 mg/kg os; for AREA Δ % (tail-flick): control 170.45
Procedure: The analgesic activity was determined according to the tail-flick test, employing an apparatus supplied by Socrel Ltd., Milano, Italy.

[4] = test system: gastric mucosa; assay: gastro-injuring action on the gastric mucosa; assay type: in vivo, Male Sprague-Dawley rats; details: oral, equimolecular doses, rats fasted 48 hours
Procedure: The action on the gastric mucosa of MR-Y134 in comparison with equimolecular doses of ASA was determined according to the method described by Pisanti and Volterra (I1 Farmaco, vol. 25, (2), 105).
The products were administered orally.
Male Sprague-Dawley rats were used fastened for 48 hours with water ad libitum.
The control group was administered with the solvent only (1% carboxymethylcellulose).

SMILES | % inhibition versus control (area, paw oedema) [2] [%] | AREA Δ % (paw volume) [2] | Percent variation of paw volume with respect to 0 time, 30' [2] [%] | paw average volume, 30' [2] [mL] | Percent variation of paw volume with respect to 0 time, 1h [2] [%] | paw average volume, 1h [2] [mL] | Percent variation of paw volume with respect to 0 time, 2h [2] [%] | paw average volume, 2h [2] [mL] | Percent variation of paw volume with respect to 0 time, 3h [2] [%] | paw average volume, 3h [2] [mL] | Percent variation of paw volume with respect to 0 time, 6h [2] [%] | paw average volume, 6h [2] [mL] | paw average volume, Basal [2] [mL] | % inhibition versus control (area, tail-flick) [3] [%] | AREA Δ % (tail-flick) [3] | Percent variation of reaction time with respect to 0 time, 1h [3] [%] | Reaction time, 1h [3] [s] | Percent variation of reaction time with respect to 0 time, 3h [3] [%] | Reaction time, 3h [3] [s] | Percent variation of reaction time with respect to 0 time, 6h [3] [%] | further results
O=C(Oc1ccccc1C(=O)O)c1cccs1 [MR-Y134, 2-(2-thenoyloxy)-benzoic acid] | 47.51 | 127.69 Δ % | 8.03 | 1.71 | 14.96 | 1.82 | 14.18 | 1.8 | 20.46 | 1.9 | 76.48 | 2.79 | 1.58 | 50.18 | 84.91 Δ % | 9.36 | 8.9 | 18.94 | 7.96 | 15.68 | height of plasma peak compared with sodium salicylate ([1]; rat, in vivo, po): substantially higher; persistence in the bloodstream ([1]; rat, in vivo, po): higher and more prolonged persistence in the bloodstream; time of plasma peak ([1]; rat, in vivo, po): third hour; antiinflammatory activity compared with ASA ([2]; equal amounts by weight): good antiinflammatory activity, substantially equal to the one of ASA; Reaction time, 6h [3]: 8.28 s; Reaction time, Basal [3]: 9.82 s; analgesic activity compared with ASA ([3]; equal amounts by weight): three times higher than the one of ASA; gastro-injuring activity compared with ASA [4]: scarce gastro-injuring activity, substantially lower than the one of ASA
O=C([O-])c1ccccc1O.[Na+] [SODIUM SALICYLATE, sodium salicylate] |  |  |  |  |  |  |  |  |  |  |  |  |  |  |  |  |  |  |  |  | time of plasma peak ([1]; oral, equimolecular doses): second hour; concentration at 1 h ([1]; rat, in vivo, po, 300 mg/kg): 362 µg/mL; concentration at 2 h ([1]; rat, in vivo, po, 300 mg/kg): 534 µg/mL; concentration at 4 h ([1]; rat, in vivo, po, 300 mg/kg): 470 µg/mL; concentration at 8 h ([1]; rat, in vivo, po, 300 mg/kg): 456 µg/mL; concentration at 12 h ([1]; rat, in vivo, po, 300 mg/kg): 325 µg/mL
CC(=O)Oc1ccccc1C(=O)O [ASA, acetylsalicylic acid] | 53.41 | 113.35 Δ % | 9.71 | 1.69 | 13.57 | 1.75 | 16.30 | 1.79 | 17.71 | 1.81 | 62.13 | 2.49 | 1.55 | 16.61 | 142.13 Δ % | 23.01 | 7.16 | 26.66 | 6.82 | 27.31 | Reaction time, 6h [3]: 6.76 s; Reaction time, Basal [3]: 9.30 s
